{
  "source": "patent EP0547334A1",
  "about": "“Combination of calcium antagonists with cholinesterase inhibitors for the treatment of senile demention” (priority 1991, dated 1993)",
  "origin": "cited, not measured here",
  "system": "Ratten",
  "conditions": "Metrifonat 1 mg/kg alone, oral, rats; literature statement (Schmidt, de Jonge 1991)",
  "data": [
    {"smiles": "COP(=O)(OC)C(O)C(Cl)(Cl)Cl", "note": "(stereo not shown) [Metrifonat]", "values": [
      {"measurement": "Wirkung", "value": "keine Wirkung"}
    ]}
  ]
}
